Results on 16 molecules are retold here after publication PMC3261798, “Design, Synthesis, and Biological Evaluation of PKD Inhibitors” (Pharmaceutics, 2011).

Where “and” joins values, the source holds several entries; their conditions need not be identical. Equal values may be shown once.

For data set [1], the system named is all PKD isoforms. As to conditions: cited from earlier work.
Data set [2] addresses T1, PKD1 (Homo sapiens, UniProt Q15139).
T1 sequence (Q15139 1-912): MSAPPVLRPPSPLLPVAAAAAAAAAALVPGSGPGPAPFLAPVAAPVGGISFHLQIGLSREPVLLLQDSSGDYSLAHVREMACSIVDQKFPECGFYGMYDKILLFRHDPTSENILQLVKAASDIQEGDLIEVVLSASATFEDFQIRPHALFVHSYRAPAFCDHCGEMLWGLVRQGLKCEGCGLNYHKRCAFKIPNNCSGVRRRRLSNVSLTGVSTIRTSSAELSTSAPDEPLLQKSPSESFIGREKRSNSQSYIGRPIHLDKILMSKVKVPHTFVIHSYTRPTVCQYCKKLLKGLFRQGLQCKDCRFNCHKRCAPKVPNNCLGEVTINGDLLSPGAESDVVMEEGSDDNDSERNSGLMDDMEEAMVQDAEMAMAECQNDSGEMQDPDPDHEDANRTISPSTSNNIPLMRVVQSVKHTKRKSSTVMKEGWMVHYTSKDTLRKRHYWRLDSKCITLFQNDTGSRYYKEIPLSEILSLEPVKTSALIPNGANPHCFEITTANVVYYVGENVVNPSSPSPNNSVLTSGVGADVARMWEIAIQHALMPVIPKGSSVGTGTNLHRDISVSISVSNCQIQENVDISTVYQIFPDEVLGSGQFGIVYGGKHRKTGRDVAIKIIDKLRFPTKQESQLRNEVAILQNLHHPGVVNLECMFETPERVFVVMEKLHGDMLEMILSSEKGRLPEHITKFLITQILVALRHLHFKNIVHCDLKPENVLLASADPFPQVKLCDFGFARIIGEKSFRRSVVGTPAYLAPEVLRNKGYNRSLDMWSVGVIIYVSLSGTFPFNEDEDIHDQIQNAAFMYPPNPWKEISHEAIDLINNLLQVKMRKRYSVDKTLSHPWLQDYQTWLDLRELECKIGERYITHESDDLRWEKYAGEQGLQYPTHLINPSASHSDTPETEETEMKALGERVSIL
Put plainly: IMAP-based PKD Fluorescence Polarization (FP) assay, automated HTS format. Particulars: mean ± SEM, n = number of independent experiments. Type of data set: biochemical. As to the method: An automated, HTS formatted IMAP-based PKD Fluorescence Polarization (FP) assay was used to assess the specificity of the PKD analogs as previously described. […] Kinase reactions were incubated for 90 min at room temperature and stopped by the addition of IMAP binding reagent. Assay plates were then incubated for 2 h and IMAP-based FP data were captured on a Molecular Devices Spectra-Max M5 (Sunnyvale, CA, USA).

The target in data set [3] is T1, PKD1. Put plainly: Cellular PKD1 inhibition: densitometry of Western blots for PKD1 autophosphorylation at S916 in PMA-stimulated LNCaP cells. As to conditions: for EC50: PMA-induced autophosphorylation of endogenous PKD1 in LNCaP prostate cancer cells; for fold improvement in cellular activity over CID755673: cellular EC50 relative to CID755673. Type of data set: cell-based. As to the method:
Inhibition of PKD 1 in cells was determined by densitometry analysis of Western blotting data for PKD1 autophosphorylation at Ser^916 in LNCaP cells as previously described. LNCaP cells were pre-treated with PKD inhibitors for 45 min at various concentrations, and then stimulated with 10 nM phorbol 12-myristate 13-acetate (PMA) for 20 min. Cells were then collected and lysed in lysis buffer containing 200 mM Tris-HCl, pH 7.4, 100 μM 4-(2-aminoethyl) benzenesulfonyl fluoride, 1 mM EGTA, and 1% Triton X-100. Cell lysates were probed by Western blot analysis using primary antibodies targeting p-S916-PKD1 (Millipore), PKD1 (Cell Signaling Technology), or GAPDH. Densitometry analysis of visualized bands was used to determine the cellular IC50 values for PKD1 inhibition.
In general terms: In western blotting, separated proteins are transferred to a membrane and probed.

Data set [4] deals with T1, PKD1. The data set is described as follows: In vitro radiometric PKD kinase activity assay. Details: purchased Biomol International. Format: biochemical. Particulars: for fold improvement in PKD1 potency over CID755673: relative to parent CID755673; for inhibitory activity against PKD (in words): preliminary biological data for kmg-NB5-13 and kmg-NB5-15. The procedure:
In vitro radiometric PKD kinase assays were conducted as previously described. Briefly, 50 ng recombinant human PKD1 (Biomol International, Plymouth Meeting, PA, USA) was incubated at 30 °C for 10 min with a reaction mixture containing 2.5 μg syntide-2 (Sigma), 70 μM ATP, and 1 μCi γ-^32 P-ATP (PerkinElmer, Boston, MA, USA) in kinase buffer (50 mM Tris-HCl pH 7.5, […], and 10 mM […]). 25 μL of the reaction mixture was then spotted on Whatman P81 filter paper (Whatman Inc., Clifton, NJ, USA), and filter papers were washed three times with 0.5% phosphoric acid, dried, then counted using a Beckman LS6500 multi-purpose scintillation counter.

Data set [5] is described as follows: Preliminary in vivo studies (plasma half-life, metabolism; data not shown). Particulars: for plasma half-life: preliminary in vivo studies, data not shown.
Data set [6] addresses T1, PKD1. The data set is described as follows: % PKD1 activity at 1 μM (single concentration; assay format not stated). Particulars: compound at 1 μM. Type of data set: biochemical.
A short description of data set [7]: Aqueous solubility. Type of data set: physicochemical. As to conditions: aqueous medium with lipophilic solubilizing agents; even in the presence of lipophilic solubilizing agents.
The nature of data set [8]: Stability in protic solvents. Format: physicochemical. As to conditions: attributed to nucleophilic attack at C-4 of the pyrimidine.
[9] abbreviates: PKD1 autophosphorylation at S916 in LNCaP cells, mean ± SEM.
The mark [10] stands for this setting: mean ± SEM, n = number of independent experiments, read-out: IC50 Radiometric PKD1.

In the case of `NC(=O)c1cc(-c2ccnc(NC3CCCCC3)c2)nc(N2CCNCC2)c1` [BPKDi], the “IC50 values, all three isoforms of PKD” value in data set [1] is listed as “single digit nanomolar”.
For orientation: IC50 means the concentration that inhibits the measured activity by half. For orientation: EC50 means the concentration that produces a half-maximal response. The low end stands for higher potency in that assay, the high end for lower potency in that assay. On to `O=C1NCCCc2c1oc1ccc(O)cc21` [CID755673, 7-Hydroxy-2,3,4,5-tetrahydro-[1]benzoxolo[2,3-c]azepin-1-one], for which the IC50 in data set [2] was 640 ± 30 nM; in data set [3] (setting [9]), 11800 ± 4000 nM; in data set [1] it was 200 to 300 nM; in data set [4] (setting [10]) it was 180 ± 20 nM. The molecule further displayed an EC50 in data set [3] of 11800 nM.
With `CC[C@@H](N)CNc1ccnc(-c2cc(-c3cnn(C)c3)ccc2O)n1.Cl.Cl` [CRT0066101], the “IC50s, all isoforms of PKD” value in [1] is recorded as “single-digit nanomolar”.
Take `C[C@H](C#N)Nc1cccc(-c2cc(-c3ccc(CNC4CCOCC4)cc3)on2)c1` [Compound 2b]: in [1], the “IC50s, all PKD isoforms” value is recorded as “low nanomolar”; the “fold preference for PKD1 versus PKD2” value is reported as 9 fold; the “fold preference for PKD1 versus PKD3” value is reported as 3 fold.
As for `O=C1NCCCc2c1[nH]c1ccc(O)cc21` [kb-NB123-57, 3,4,5,10-Tetrahydro-7-hydroxy-azepino[3,4-b]indol-1(2H)-one], the IC50 in [2] came to 2140 ± 120 nM; in data set [4] (setting [10]) it was 130 ± 10 nM. Further, the “IC50 Cellular PKD1” value in [3] (setting [9]) is given as “no significant cellular activity”.
`O=C1NCCSc2c1sc1ccc(O)cc21` [kb-NB142-70, 3,4-Dihydro-9-hydroxy-[1]benzothieno[2,3-f]-1,4-thiazepin-5(2H)-one]: the IC50 in data set [2] was 710 ± 20 nM; in data set [3] (setting [9]), 2220 ± 590 nM; in data set [4] (setting [10]) it was 28 ± 2 nM. Moreover, the EC50 in data set [3] is 2200 nM. For the same molecule, the “fold improvement in cellular activity over CID755673” value in data set [3] was “ca. 5 fold”. In addition, in data set [5], the plasma half-life entry is “short”. Moreover, the major metabolic pathway entry in data set [5] (preliminary results from an animal model) was “glucuronidation of kb-NB142-70 at the phenolic position to be a major metabolic pathway”. The “fold improvement in PKD1 potency over CID755673” value in data set [4] is roughly 7 fold.
`COc1ccc2sc3c(c2c1)SCCNC3=O` [kb-NB165-09, 3,4-Dihydro-9-methoxy-[1]benzothieno[2,3-f]-1,4-thiazepin-5(2H)-one] showed an IC50 in [3] (setting [9]) of 3130 ± 540 nM. In data set [3], the EC50 came out at 3100 nM and the “fold improvement in cellular activity over CID755673” value was “ca. 5 fold”. For the same molecule, the plasma half-life entry in [5] is “short”. In data set [4] (setting [10]), the IC50 came out at 80 ± 10 nM. Also, the “fold improvement in PKD1 potency over CID755673” value in [4] is “ca. 7 fold”.
As a reminder, the remaining activity is the signal under treatment as a percentage of the control signal. A high value points to much activity left. As a reminder, the melting point is the temperature, or range, at which the solid turns liquid. On to `O=C1NCCSc2c1sc1ccc(O)c(I)c21` [kb-NB165-31, 3,4-Dihydro-9-hydroxy-10-iodo-[1]benzothieno[2,3-f]-1,4-thiazepin-5(2H)-one], for which the melting point is 128 °C (dec.). For the same molecule, the “fold lower cellular activity than kb-NB142-70” value in [3] (relative to kb-NB142-70) is reported as 4 fold. In data set [6], this molecule showed a remaining activity at 1 µM of 13.6%. In data set [4] (in vitro, read-out: PKD1 IC50), the half-maximal inhibitory concentration (IC50) stood at 114 nM. Further, in data set [4] (setting [10]), the IC50 came to 110 ± 20 nM.
In the case of `O=C1NCCCSc2c1sc1ccc(O)cc21` [kb-NB165-92, 2,3,4,5-Tetrahydro-10-hydroxybenzo[b]thieno[2,3-f]-1,5-thiazocin-6-one], the results for the IC50 in data set [3] (setting [9]) and in [4] (setting [10]) were 2560 ± 660 nM and 110 ± 10 nM, respectively. Moreover, the remaining activity at 1 µM in data set [6] is 16.7%.
Molecule `COc1ccc2c(c1)c1c([s+]2[O-])C(=O)NCCS1` (stereo not drawn) [kb-NB184-25, 3,4-Dihydro-9-methoxy-6-oxide-[1]benzothieno[2,3-f]-1,4-thiazepin-5(2H)-one] gave a melting point of 284 to 287 °C. In addition, in data set [6], the remaining activity at 1 µM was found to be 50.4 ± 2.3%. Moreover, the IC50 in [4] (setting [10]) was 1080 nM.
For `O=C1NCCSc2c1sc1ccc(O)c(Br)c21` [kb-NB184-52, 3,4-Dihydro-9-hydroxy-10-bromo-[1]benzothieno[2,3-f]-1,4-thiazepin-5(2H)-one] the same measures were 235 to 238 °C (dec.), 12.7 ± 0.2% and 48 nM.
In turn, `COC(=O)c1sc2ccc(OC)cc2c1NCCCO` [kb-NB184-80, Methyl 3-(3-hydroxypropylamino)-5-methoxybenzo[b]thiophene-2-carboxylate] had a melting point of 116 to 120 °C. The remaining activity at 1 µM in [6] came out at 91.3 ± 1.5%. Moreover, the “IC50 Radiometric PKD1” value in [4] (mean ± SEM, n = number of independent experiments) is given as “not inhibitory”.
Usually solubility stands for how much of the substance goes into solution per volume. As for `COc1ncc2sc3c(c2n1)SCCNC3=O` [kmg-NB4-23, 2-Methoxy-7H,8H,9H-1,4-thiazepino [7′,6′-5,4]thiopheno[3,2-d]pyrimidin-6-one], the melting point was 308 °C (dec.). Further, inhibition in data set [3] (setting [9]) was half-maximal at 6800 ± 1300 nM (IC50). The solubility in [7] was less than 400 µg/mL. Further, the IC50 in data set [4] (in vitro, read-out: PKD1 IC50) was determined as 124 nM. The IC50 in data set [4] (setting [10]) was found to be 120 ± 30 nM. In data set [4], the “inhibitory activity against PKD (in words)” value was “potent nanomolar inhibitor”.
Take `O=C1NCCSc2c1sc1cnc(O)nc21` [kmg-NB4-69A, 2-Hydroxy-7H,8H,9H-1,4-thiazepino[7′,6′-5,4]thiopheno[3,2-d]pyrimidin-6-one]: the “stability in protic solvents” value in data set [8] is listed as “spontaneously degrades in protic solvents”. Further, in data set [4] (setting [10]), the IC50 worked out at 25300 nM. Further, the “inhibitory activity against PKD (in words)” value in data set [4] was “only weak inhibitory effect”.
`Nc1ccc2sc3c(c2c1)SCCNC3=O` [mcf292-03, 3,4-Dihydro-9-amino-[1]benzothieno[2,3-f]-1,4-thiazepin-5(2H)-one] had a melting point of 198.6 to 199 °C. For the same molecule, the remaining activity at 1 µM in data set [6] was 74.4 ± 1.1%. In data set [4] (setting [10]), the IC50 was found to be 3170 nM.
On to `[N-]=[N+]=Nc1ccc2sc3c(c2c1)SCCNC3=O` [mcf292-08, 3,4-Dihydro-9-azido-[1]benzothieno[2,3-f]-1,4-thiazepin-5(2H)-one], for which the melting point is 193 °C (dec.). Besides, the IC50 in data set [3] (setting [9]) is 2200 nM and 2170 nM. In data set [4] (in vitro, read-out: PKD1 IC50), the half-maximal inhibitory concentration (IC50) came out at 74.9 nM. Moreover, the half-inhibitory concentration (IC50) in data set [4] (setting [10]) amounted to 80 ± 10 nM.
